Legend:
[1] = system: EAE; assay: Experimental autoimmune encephalomyelitis (EAE) induced with MBP in Lewis rats, clinical score; assay type: in vivo, female Lewis rats
[2] = biological target: T1, A1 receptor (Rattus norvegicus, UniProt P25099); conditions: cited from earlier work
T1 sequence (P25099 1-326): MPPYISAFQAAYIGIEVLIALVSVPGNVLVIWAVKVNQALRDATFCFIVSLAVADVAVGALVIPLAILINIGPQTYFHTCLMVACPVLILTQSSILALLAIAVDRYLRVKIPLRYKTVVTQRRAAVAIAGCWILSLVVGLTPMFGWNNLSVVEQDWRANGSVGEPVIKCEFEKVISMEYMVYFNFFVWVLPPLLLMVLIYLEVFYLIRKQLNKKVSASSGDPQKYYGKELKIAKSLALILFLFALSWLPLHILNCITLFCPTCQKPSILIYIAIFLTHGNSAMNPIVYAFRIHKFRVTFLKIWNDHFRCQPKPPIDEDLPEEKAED

[3] = system: multiple sclerosis; conditions: patients having MS; cited from earlier work

SMILES | difference in the maximal clinical score between treated and control groups ([1]; 10 μg/kg PO BID from day 7, P<0.01, Student's t test) | severity of the disease in the treated group ([1]; 10 μg/kg PO BID from day 7 after disease induction) | clinical score in comparison to the control group ([1]; 10 μg/kg PO BID from day 7 after disease induction, score 0-5) | functional character at A1 receptors [2] | effect on the disease condition of MS patients [3]
CNC(=O)[C@H]1O[C@@H](n2cnc3c(NCc4cccc(I)c4)ncnc32)[C@H](O)[C@@H]1O [CF101, N^6-(3-iodobenzyl)-adenosine-5′-N-methyluronamide] | significant | significantly reduced | remarkably low clinical score |  | 
Nc1nc(Cl)nc2c1ncn2[C@H]1C[C@H](O)[C@@H](CO)O1 [CdA, 2-chloro-2′-deoxyadenosine] |  |  |  | putative partial agonist | markedly ameliorate the disease condition
